The subject of series [1] is motor neurons of zebrafish larvae. The series can be described thus: Targeted neuronal ablation with MTZ in nitroreductase-expressing zebrafish. Format: in vivo. On the procedure: Briefly, zebrafish embryos were co-injected at 1-cell stage with mnx1:Gal4, UAS:GCaMP6f, and UAS:Nitroreductase-mCherry. Embryos were grown at 28.5° C. until 48 hours post fertilization (hpf), anaesthetized in tricaine, embedded in low-melting point agarose, and then imaged on a spinning disk confocal microscope. Images were acquired of the same motor neurons within the zebrafish at 0, 24 hours, and 48 hours after MTZ or DMSO was added to the media. Intensity of GCaMP6f was plotted as the change in fluorescence intensity from time point 0.
The GEDI reporter was also tested in skeletal muscle fiber. FIG. 13C. […] FIGS. 14A, 14B, and 22.

Series [2] relates to Rat primary neurons. Put plainly: KCl membrane depolarization of neurons expressing RGEDI-P2A-EGFP. To be noted: 10 mM KCl (FIG. 21D). The series is classed as cell-based. As to the method: FIG. 21A depicts representative images of individual neurons over the time course. […] Next, the RGEDI intensity was plotted as a percentage increase from baseline (t=0) (ie delta RGEDI/baseline RGEDI). Using the morphology as a readout, the time of death was determined for each neuron. […] FIG. 21D.

The test system of series [3] is rat primary cortical neurons. Put plainly: Toxicity of neurodegenerative disease proteins in neurons, cumulative hazard from GEDI ratio. The series is classed as cell-based. To be noted: automated GEDI ratio, 8 time points. As to the method:
Rat primary cortical neuron cultures were prepared from embryos (embryonic day 16-18) and co-transfected using Lipofectamine2000 (ThermoFisher Scientific, Carlsbad, Calif., USA) with 150 ng/well of hSyn1:mRuby-P2a-GCaMP (Addgene #50943) and either Htt^ex1-Q27 or Htt^ex1-Q97 (known to induce neurodegeneration) in a 96-well format. […] FIG. 17A. The GCaMP intensity was detected and plotted as a percentage increase from baseline (t=0) (i.e., delta GCaMP/baseline GCaMP). Using the morphology as a readout, the time of death was determined for each neuron.
To examine the changes in signal increase as a cell dies, rat primary cortical neurons expressing GCaMP6f, mRuby, and HttEx1-Q97 were examined overtime. […] Using time lapse imaging, it was observed that 0 out of 94,106 dead rat primary cortical neurons examined regenerated after elevated GEDI signal, indicating elevated GEDI signal is terminal. In addition, the ratio of GCaMP6f/mRuby signal from rat primary cortical neurons expressing HttEx1-Q97 and HttEx1-Q25 at 0, 24, 48, 72, 96, and 120 hours post transfection was determined. FIG. 1B, the horizontal line at 0.75 separates dead from live neurons. […] Similarly, human motor neurons differentiated from induced pluripotent stem cells were transfected with […] hSyn1:mRuby-P2a-GCaMP and imaged with robotic microscopy every 6 hours up to 12 hours. […]

Series [4] relates to Rat primary neurons. The series can be described thus: RGEDI/EGFP ratio after NaN3-induced acute death of neurons. Format: cell-based. As to the method: ANOVA Tukey's ***p<0.001, ns=not significant.
Rat primary neurons were transfected with hsyn1:RGEDI-P2A-EGFP as described above and imaged at DIV10. […] A non-linear regression was fit to the NaN3+Ca^2+ time course and a half-life of RGEDI/EGFP signal increase was determined to be 5 minutes and 50 seconds. […] ANOVA Tukey comparison to 0 minutes of each condition, *** p<0.001, **** p<0.0001. […] FIG. 3.

Series [5] concerns rat primary cortical neurons. The series can be described thus: Glutamate exposure of neurons expressing RGEDI, survival by GEDI ratio. To be noted: within three hours of glutamate exposure. The series is classed as cell-based. The source says:
Briefly, neurons expressing RGEDI were exposed to the neurotransmitter glutamate. […] Furthermore, features of neurons such as neurite area were identified as associated with neurons that are resistant to high Glutamate exposure. These studies indicate that GEDIs can be used for screening for drug resistant or drug sensitive cells and identifying physiological characteristics of those cells that may underlie their sensitivity or resistance.

Consider `Cc1ncc([N+](=O)[O-])n1CCO` [MTZ, metronidazole], for which the GCaMP expression entry in series [1] (24 and 48 hours after addition, zebrafish larvae motor neurons, NTR-mCherry) is recorded as “increased”. For the same compound, the RGEDI-P2a-3XtagBFP signal result in series [1] (zebrafish neurons co-expressing NTR-mVenus, versus DMSO) is “signal increased”.

Regarding `[Cl-].[K+]` [KCl], the “excitation of RGEDI-P2A-EGFP signal” value in series [2] is “failed to excite”.

With α-synuclein, the “toxicity over time compared to control (cumulative hazard)” value in series [3] is recorded as “increased toxicity”.

For the compound “TDP43: neurodegenerative disease protein transfected into neurons”, the “toxicity over time compared to control (cumulative hazard)” value in series [3] was “increased toxicity”.

Consider `[N-]=[N+]=[N-].[Na+]` [NaN3], for which the RGEDI/EGFP ratio result in series [4] (2% NaN3 in NBM with ~2 mM Ca^2+, compared to saline) is reported as “significantly increased”; in series [4] (NaN3, neurons washed 3x and incubated in Ca2+ free PBS), “did not show a significant increase”.

Regarding `N[C@@H](CCC(=O)O)C(=O)O` [glutamate], the neuronal death entry in series [5] was “killed many of the cells”.

These data come from US20190242876A1, “GENETICALLY ENCODED CELL DEATH INDICATORS AND METHODS OF USE” (The J. David Gladstone Institutes, A Testamentary Trust …, priority 2016, published 2019).
